From ChEMBL document CHEMBL3860071, “Discovery and structure-activity relationship studies of quinolinone derivatives as potent IL-2 suppressive agents” (Bioorg Med Chem, 2016)
Active and inactive are the calls of the source. The rule behind the calls is not given here.

Columns and labels:
Jurkat [1] = test: Immunosuppressive activity in human PMA/ionomycin stimulated Jurkat T cells assessed as suppression of IL2 production at 1 uM pretreated with cells followed by PMA/ionomycin stimulation measured after 13 hrs by ELISA; assay type: functional
[2] = Cytotoxicity against human Jurkat T cells assessed as cell survival at 10 uM measured after 3 days by MTT assay; assay type: toxicity, cell-based; conditions: read-out: Survival
Jurkat [3] = test: Immunosuppressive activity in human PMA/ionomycin stimulated Jurkat T cells assessed as suppression of IL2 production pretreated with cells followed by PMA/ionomycin stimulation measured after 13 hrs by ELISA; assay type: functional, cell-based
Jurkat [4] = test: Immunosuppressive activity in human anti-CD3/anti-CD28 stimulated Jurkat T cells assessed as suppression of IL2 production at 10 uM pretreated with cells followed by anti-CD3/CD28 stimulation measured after 13 hrs by ELISA; assay type: functional
Jurkat [5] = test: Immunosuppressive activity in human PMA/ionomycin stimulated Jurkat T cells assessed as suppression of IL2 production at 10 uM pretreated with cells followed by PMA/ionomycin stimulation measured after 13 hrs by ELISA; assay type: functional
CYP2C9 [6] = target: T1, CYP2C9 (Homo sapiens, UniProt P11712); test: Inhibition of recombinant human CYP2C9 expressed in baculosomes at 1 uM preincubated with protein prior to substrate addition measured after 40 mins in presence of NADP regeneration system by fluorimetric analysis; assay type: ADME
CYP2C9 [7] = target: T1, CYP2C9; test: Inhibition of recombinant human CYP2C9 expressed in baculosomes at 10 uM preincubated with protein prior to substrate addition measured after 40 mins in presence of NADP regeneration system by fluorimetric analysis; assay type: ADME
Jurkat [8] = test: Inhibition of NFkappaB activation in human anti-CD3/anti-CD28 stimulated Jurkat T cells at 10 uM measured by renilla luciferase reporter gene assay relative to control; assay type: cell-based
[9] = Half life in mouse liver […] S9 fraction at 5 uM in presence of NADPH by LC-MS/MS analysis; assay type: ADME, subcellular
[10] = Half life in human liver S9 fraction at 5 uM in presence of NADPH by LC-MS/MS analysis; assay type: ADME, subcellular
[11] = Half life in rat liver […] S9 fraction at 5 uM in presence of NADPH by LC-MS/MS analysis; assay type: ADME, subcellular
[12] = target: T2, NF-kappa-B inhibitor alpha (Homo sapiens) (UniProt P25963); test: Inhibition of IkappaBalpha phosphorylation in human anti-CD3/anti-CD28 stimulated Jurkat T cells at 10 uM pretreated with cells followed by anti-CD3/anti-CD28 stimulation measured up to 60 mins immunoblot analysis; assay type: cell-based
T2 sequence (whole entry): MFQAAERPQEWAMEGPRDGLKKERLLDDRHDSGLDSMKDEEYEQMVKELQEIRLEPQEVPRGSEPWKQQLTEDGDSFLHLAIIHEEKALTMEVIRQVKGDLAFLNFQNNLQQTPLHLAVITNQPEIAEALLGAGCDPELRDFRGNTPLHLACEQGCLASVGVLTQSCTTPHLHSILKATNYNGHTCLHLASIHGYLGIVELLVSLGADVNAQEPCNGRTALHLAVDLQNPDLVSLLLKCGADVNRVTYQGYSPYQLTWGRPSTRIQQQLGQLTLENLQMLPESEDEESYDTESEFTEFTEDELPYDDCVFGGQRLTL

[13] = target: T3, Nuclear factor of activated T-cells, cytoplasmic 1 (Homo sapiens) (UniProt O95644); test: Reduction in NFATc1 nuclear localization in human anti-CD3/anti-CD28 stimulated Jurkat T cells at 10 ug measured after 15 mins by SDS-PAGE and immunoblot analysis; assay type: cell-based
T3 sequence (whole entry): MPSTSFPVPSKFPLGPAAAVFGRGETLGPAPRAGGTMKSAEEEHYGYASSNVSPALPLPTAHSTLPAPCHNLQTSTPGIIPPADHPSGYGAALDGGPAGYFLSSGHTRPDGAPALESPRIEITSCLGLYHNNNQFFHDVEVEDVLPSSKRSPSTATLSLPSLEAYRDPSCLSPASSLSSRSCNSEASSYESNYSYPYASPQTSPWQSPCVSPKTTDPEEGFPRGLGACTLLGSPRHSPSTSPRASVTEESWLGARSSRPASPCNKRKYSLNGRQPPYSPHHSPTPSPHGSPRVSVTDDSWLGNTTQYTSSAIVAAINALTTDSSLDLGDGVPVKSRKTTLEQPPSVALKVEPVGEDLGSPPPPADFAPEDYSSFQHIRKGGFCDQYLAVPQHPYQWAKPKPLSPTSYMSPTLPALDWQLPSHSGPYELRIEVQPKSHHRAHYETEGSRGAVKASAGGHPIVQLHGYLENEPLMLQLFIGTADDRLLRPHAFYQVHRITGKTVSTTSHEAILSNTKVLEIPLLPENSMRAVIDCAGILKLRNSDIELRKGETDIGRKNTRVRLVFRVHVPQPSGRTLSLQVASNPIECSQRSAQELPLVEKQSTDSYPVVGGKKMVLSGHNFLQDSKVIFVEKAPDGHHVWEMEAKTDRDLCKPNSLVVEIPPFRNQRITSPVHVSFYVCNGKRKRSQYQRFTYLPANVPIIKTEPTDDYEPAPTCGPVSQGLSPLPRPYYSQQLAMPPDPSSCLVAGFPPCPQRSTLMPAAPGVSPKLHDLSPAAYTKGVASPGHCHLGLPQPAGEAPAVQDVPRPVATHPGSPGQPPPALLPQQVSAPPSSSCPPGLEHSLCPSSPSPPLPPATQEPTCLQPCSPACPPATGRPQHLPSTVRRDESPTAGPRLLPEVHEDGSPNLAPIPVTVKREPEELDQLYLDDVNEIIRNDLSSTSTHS

[14] = target: T4, Inhibitor of nuclear factor kappa-B kinase subunit beta (Homo sapiens) (UniProt O14920); test: Inhibition of recombinant full length human N-terminal His6-tagged IKKbeta expressed in baculovirus infected sf21 cells at 10 uM using IKKtide as substrate after 40 mins in presence of [gamma33P]ATP by scintillation counting method relative to control
T4 sequence (whole entry): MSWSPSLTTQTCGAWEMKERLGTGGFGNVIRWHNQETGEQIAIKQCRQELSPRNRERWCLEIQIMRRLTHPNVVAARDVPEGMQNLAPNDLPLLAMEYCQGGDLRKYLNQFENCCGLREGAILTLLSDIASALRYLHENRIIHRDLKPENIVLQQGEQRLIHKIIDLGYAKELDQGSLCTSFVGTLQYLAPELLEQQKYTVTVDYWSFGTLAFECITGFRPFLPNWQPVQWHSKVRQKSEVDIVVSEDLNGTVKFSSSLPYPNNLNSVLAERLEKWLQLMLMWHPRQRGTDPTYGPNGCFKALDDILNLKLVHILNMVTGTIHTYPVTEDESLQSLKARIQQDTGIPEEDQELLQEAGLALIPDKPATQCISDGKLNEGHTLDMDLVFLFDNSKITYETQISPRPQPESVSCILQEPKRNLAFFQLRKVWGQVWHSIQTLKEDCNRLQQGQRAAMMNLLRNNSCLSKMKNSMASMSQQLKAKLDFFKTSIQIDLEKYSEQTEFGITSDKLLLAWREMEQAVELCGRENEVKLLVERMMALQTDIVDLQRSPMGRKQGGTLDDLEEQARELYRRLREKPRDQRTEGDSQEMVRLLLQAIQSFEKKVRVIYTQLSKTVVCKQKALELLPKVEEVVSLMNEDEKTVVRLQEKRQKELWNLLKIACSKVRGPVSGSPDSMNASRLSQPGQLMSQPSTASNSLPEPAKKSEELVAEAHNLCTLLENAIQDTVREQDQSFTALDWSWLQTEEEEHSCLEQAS

T1 sequence (P11712 whole entry): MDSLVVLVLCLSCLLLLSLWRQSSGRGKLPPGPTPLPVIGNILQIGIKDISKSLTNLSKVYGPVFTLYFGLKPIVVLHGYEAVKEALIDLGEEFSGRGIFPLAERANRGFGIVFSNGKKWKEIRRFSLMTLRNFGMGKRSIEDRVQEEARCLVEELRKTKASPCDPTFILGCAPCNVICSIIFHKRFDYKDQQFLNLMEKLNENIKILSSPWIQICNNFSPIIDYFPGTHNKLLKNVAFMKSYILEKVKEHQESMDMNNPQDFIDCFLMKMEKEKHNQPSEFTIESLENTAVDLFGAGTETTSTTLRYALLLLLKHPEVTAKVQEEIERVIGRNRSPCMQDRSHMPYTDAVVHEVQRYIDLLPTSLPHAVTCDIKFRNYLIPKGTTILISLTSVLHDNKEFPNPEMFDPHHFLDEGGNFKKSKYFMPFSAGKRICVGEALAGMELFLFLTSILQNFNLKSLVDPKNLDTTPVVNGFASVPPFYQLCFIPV

Structure (SMILES)	inhibition at 1 µM (Jurkat [1]) [%]	viability at 72 h, 10 µM [2] [%]	IC50 (Jurkat [3]) [µM]	other results
COc1ccc(Cn2c(=O)c(C(=O)NCCc3ccc(OC)c(O)c3)cc3c(N)cccc32)cc1	37	99	–	–
COc1ccc(CCNC(=O)c2cc3c(N)cccc3n(Cc3ccc(OC)cc3)c2=O)cc1	25	96	–	–
COc1ccc(Cn2c(=O)c(C(=O)NCCc3ccc(O)c(O)c3)cc3c(N)cccc32)cc1	14	98	–	–
COc1ccc(Cn2c(=O)c(C(=O)NCC(C)C)cc3c(N)cccc32)cc1	–	99	–	–
N#Cc1ccc(Cn2c(=O)c(C(=O)NCCc3ccccc3)cc3c([N+](=O)[O-])cccc32)cc1	28	95	–	–
O=C(NCCc1ccccc1)c1cc2c([N+](=O)[O-])cccc2n(Cc2ccc(Br)cc2)c1=O	–	64	0.78	–
COc1ccc(Cn2c(=O)c(C(=O)NCCc3ccc(C)cc3)cc3c(N)cccc32)cc1	–	99	–	–
COc1ccc(Cn2c(=O)c(C(=O)NCCc3ccc(O)cc3)cc3c(N)cccc32)cc1	20	97	–	–
COc1ccc(Cn2c(=O)c(C(=O)NCCc3ccccc3)cc3c(Cl)cccc32)cc1	44	87	–	–
COc1ccc(Cn2c(=O)c(C(=O)NCc3ccccc3)cc3c(N)cccc32)cc1	30	98	–	–
COc1ccc(Cn2c(=O)c(C(=O)NCCc3ccc(Br)cc3)cc3c(N)cccc32)cc1	38	93	–	–
CC(C)(C)c1ccc(Cn2c(=O)c(C(=O)NCCc3ccccc3)cc3c([N+](=O)[O-])cccc32)cc1	–	94	0.386	–
CCc1ccc(CCNC(=O)c2cc3c(N)cccc3n(Cc3ccc(OC)cc3)c2=O)cc1	–	97	–	–
C/C=C/C[C@@H](C)[C@@H](O)[C@H]1C(=O)N[C@@H](CC)C(=O)N(C)CC(=O)N(C)[C@@H](CC(C)C)C(=O)N[C@@H](C(C)C)C(=O)N(C)[C@@H](CC(C)C)C(=O)N[C@@H](C)C(=O)N[C@H](C)C(=O)N(C)[C@@H](CC(C)C)C(=O)N(C)[C@@H](CC(C)C)C(=O)N(C)[C@@H](C(C)C)C(=O)N1C [CYCLOSPORINE]	–	–	0.011	–
O=C(NCCc1ccccc1)c1cc2c([N+](=O)[O-])cccc2n(Cc2ccc([N+](=O)[O-])cc2)c1=O	–	97	0.353	–
O=C(NCCc1ccccc1)c1cc2c([N+](=O)[O-])cccc2n(Cc2ccc(F)cc2)c1=O	–	98	0.72	–
CC(C)c1ccc(Cn2c(=O)c(C(=O)NCCc3ccccc3)cc3c(Cl)cccc32)cc1	–	91	0.256	–

Structure (SMILES)	inhibition at 1 µM (Jurkat [1]) [%]	viability at 72 h, 10 µM [2] [%]	IC50 (Jurkat [3]) [µM]	other results
O=C(NCCc1ccccc1)c1cc2c([N+](=O)[O-])cccc2n(Cc2ccc(OC(F)(F)F)cc2)c1=O	–	96	0.16	inhibition at 10 µM (Jurkat [4]): 79%
CCc1ccc(Cn2c(=O)c(C(=O)NCCc3ccccc3)cc3c([N+](=O)[O-])cccc32)cc1	–	96	0.155	inhibition at 10 µM (Jurkat [4]): 81%
O=C(NCCc1ccccc1)c1cc2c([N+](=O)[O-])cccc2n(Cc2ccc(Cl)cc2)c1=O	39	97	–	–
CCN(C(=O)c1c(O)c2c(Cl)cccc2n(C)c1=O)c1ccccc1 [LAQUINIMOD]	–	–	–	inhibition at 10 µM (Jurkat [5]): 16%
CCc1ccc(Cn2c(=O)c(C(=O)NCCc3ccccc3)cc3c(Cl)cccc32)cc1	–	97	0.401	–
Cc1ccc(Cn2c(=O)c(C(=O)NCCc3ccccc3)cc3c([N+](=O)[O-])cccc32)cc1	–	81	–	–
CC(C)c1ccc(Cn2c(=O)c(C(=O)NCCc3ccccc3)cc3c([N+](=O)[O-])cccc32)cc1	–	93	0.08	inhibition at 40 min, 1 µM (CYP2C9 [6]): 30%; inhibition at 40 min, 10 µM (CYP2C9 [7]): 65%; inhibition (Jurkat [8]): Active; half-life at 5 µM [9]: 7 min; half-life at 5 µM [10]: 7 min; half-life at 5 µM [11]: 7 min; inhibition [12]: Active; inhibition [13]: Active; inhibition at 10 µM (Jurkat [4]): 83%; inhibition [14]: 29%
COc1ccc(Cn2c(=O)c(C(=O)NCCc3ccncc3)cc3c(N)cccc32)cc1	16	93	–	–
COc1ccc(Cn2c(=O)c(C(=O)NCCCc3ccccc3)cc3c(N)cccc32)cc1	11	97	–	–
COc1ccc(Cn2c(=O)c(C(=O)NCCc3ccc(Cl)cc3)cc3c(N)cccc32)cc1	19	96	–	–
COc1ccc(Cn2c(=O)c(C(=O)NCCc3ccccc3)cc3c(N)cccc32)cc1	41	98	–	–
COc1cccc(Cn2c(=O)c(C(=O)NCCc3ccccc3)cc3c([N+](=O)[O-])cccc32)c1	16	97	–	–
COc1ccc(Cn2c(=O)c(C(=O)NCCc3ccccc3)cc3ccc([N+](=O)[O-])cc32)cc1	–	95	–	–
COc1ccc(Cn2c(=O)c(C(=O)NCCc3ccc4c(c3)OCO4)cc3c(N)cccc32)cc1	31	96	–	–
COCCCNC(=O)c1cc2c(N)cccc2n(Cc2ccc(OC)cc2)c1=O	–	97	–	–
COc1ccc(Cn2c(=O)c(C(=O)NCCc3ccccc3)cc3c([N+](=O)[O-])cccc32)cc1	–	96	0.924	–
O=C(NCCc1ccccc1)c1cc2c([N+](=O)[O-])cccc2n(Cc2ccccc2)c1=O	–	91	–	–
